The molecules below were run against NMDA NR1/NR2B receptor (Homo sapiens (Human), UniProt Q13224) (assay: NMDA NR1/NR2B FLIPR calcium assay in HEK293 cells). Conditions: glycine/glutamate-induced calcium, read-out: IC50, in vitro NR2B affinity in the FLIPR assay.
Type: cell-based
Protocol: A human HEK293 cell line with tetracyclin-inducible expression of NMDA NR1/NR2B receptor was used as a test system for compound efficacy and potency. The cell line was purchased from ChanTest, Catalog #CT6121. Compound activity was determined by measuring the effect of compounds on intracellular calcium concentration induced by glycine/glutamate agonism in a FLIPRtetra system (Molecular Devices).
The cells were obtained as frozen cells in cryo-vials and stored until use at −150° C. Cells were grown in culture medium (DMEM/F12, 10% FBS, 5 μg/mL Blasticidin, 150 μg/mL Zeozin, 500 μg/mL Geneticin). […] For sub-culturing the cells were detached from flasks by Versene. For the assay, cells were detached, washed twice with induction medium (DMEM/F12 without glutamine, 10% FBS, 2 μg/mL Tetracycline, 2 mM Ketamine) and seeded to 384 well pure coat amine plates (Becton Dickinson, 50000 cells per well in 50 μl) 48 h prior to assay in induction medium.
The test compounds were dissolved in 100% DMSO at a concentration of 10 mM and in a first step diluted in DMSO to a concentration of 5 mM, followed by serial dilution steps in 100% DMSO. Dilution factor and number of dilution steps may vary according to needs. Typically 8 different concentrations by 1:5 dilutions were prepared in duplicate, further intermediate dilutions (1:37.5) of the substances were carried out with aqueous assay buffer (137 mM NaCl, 4 mM KCl, 1.8 mM CaCl2), 10 mM HEPES, 10 mM Glucose, pH 7.4) resulting in a compound concentration 3 times above the final test concentration and DMSO at 2.7% resulting in 0.9% final DMSO concentration in the assay.
At the assay day cells were washed 3× with assay buffer (as described above), 10 μL buffer remained in the wells after washing. 10 μL Ca kit loading buffer (AAT Bioquest; prepared from the kit containing the following components: Component A: Fluo-8 NW dissolved in 200 μL DMSO and 20 μl of this solution are mixed with 10 ml buffer prepared out of component B and C, Component B: 10× Pluronic® F127 Plus diluted 1:10 in component C, Component C: HHBS (Hanks with 20 mM Hepes) was added to the cells and the plates were incubated with lid for 60 minutes at room temperature. 20 μl assay buffer containing 60 μM glycine (20 μM final) and 3 μM glutamate (1 μM final) was added to column 1-23, column 24 got assay buffer without glycine/glutamate to serve as negative unstimulated control. Fluorescence (indicating the calcium influx as a result of the NR1/NR2B ion channel activation) was read on the FLIPRtetra device for 60 seconds to monitor the glutamate induced effects. After 2 minutes 20 μL of compound dilution prepared as described above or controls (row 1-22) in assay buffer were carefully added to the wells. […] The average of 2 measurements at 5 minutes and 5 min 10 seconds after compound addition is calculated and further used for IC50 calculations. Each assay microtiter compound dilution plate contained wells (in column 23 or 24) with DMSO controls instead of compound as controls for glycine/glutamate induced fluorescence (high controls) and wells with 1 μM of a reference NR2B NAM as low controls (Compound 22; reference: Layton, Mark E et al, ACS Chemical Neuroscience 2011, 2(7), 352-362).
The output file of the reader contains the well number and measured average fluorescence units. For data evaluation and calculation, the measurement of the low control was set as 0% control and the measurement of the high control was set as 100% control. The IC50 values were calculated using the standard 4 parameter logistic regression formula. Calculation: [y=(a−d)/(1+(x/c)^b)+d], a=low value, d=high value; x=conc M; c=IC50 M; b=slope.

Chain of NMDA NR1/NR2B receptor (Q13224 27-1484, other chains not shown): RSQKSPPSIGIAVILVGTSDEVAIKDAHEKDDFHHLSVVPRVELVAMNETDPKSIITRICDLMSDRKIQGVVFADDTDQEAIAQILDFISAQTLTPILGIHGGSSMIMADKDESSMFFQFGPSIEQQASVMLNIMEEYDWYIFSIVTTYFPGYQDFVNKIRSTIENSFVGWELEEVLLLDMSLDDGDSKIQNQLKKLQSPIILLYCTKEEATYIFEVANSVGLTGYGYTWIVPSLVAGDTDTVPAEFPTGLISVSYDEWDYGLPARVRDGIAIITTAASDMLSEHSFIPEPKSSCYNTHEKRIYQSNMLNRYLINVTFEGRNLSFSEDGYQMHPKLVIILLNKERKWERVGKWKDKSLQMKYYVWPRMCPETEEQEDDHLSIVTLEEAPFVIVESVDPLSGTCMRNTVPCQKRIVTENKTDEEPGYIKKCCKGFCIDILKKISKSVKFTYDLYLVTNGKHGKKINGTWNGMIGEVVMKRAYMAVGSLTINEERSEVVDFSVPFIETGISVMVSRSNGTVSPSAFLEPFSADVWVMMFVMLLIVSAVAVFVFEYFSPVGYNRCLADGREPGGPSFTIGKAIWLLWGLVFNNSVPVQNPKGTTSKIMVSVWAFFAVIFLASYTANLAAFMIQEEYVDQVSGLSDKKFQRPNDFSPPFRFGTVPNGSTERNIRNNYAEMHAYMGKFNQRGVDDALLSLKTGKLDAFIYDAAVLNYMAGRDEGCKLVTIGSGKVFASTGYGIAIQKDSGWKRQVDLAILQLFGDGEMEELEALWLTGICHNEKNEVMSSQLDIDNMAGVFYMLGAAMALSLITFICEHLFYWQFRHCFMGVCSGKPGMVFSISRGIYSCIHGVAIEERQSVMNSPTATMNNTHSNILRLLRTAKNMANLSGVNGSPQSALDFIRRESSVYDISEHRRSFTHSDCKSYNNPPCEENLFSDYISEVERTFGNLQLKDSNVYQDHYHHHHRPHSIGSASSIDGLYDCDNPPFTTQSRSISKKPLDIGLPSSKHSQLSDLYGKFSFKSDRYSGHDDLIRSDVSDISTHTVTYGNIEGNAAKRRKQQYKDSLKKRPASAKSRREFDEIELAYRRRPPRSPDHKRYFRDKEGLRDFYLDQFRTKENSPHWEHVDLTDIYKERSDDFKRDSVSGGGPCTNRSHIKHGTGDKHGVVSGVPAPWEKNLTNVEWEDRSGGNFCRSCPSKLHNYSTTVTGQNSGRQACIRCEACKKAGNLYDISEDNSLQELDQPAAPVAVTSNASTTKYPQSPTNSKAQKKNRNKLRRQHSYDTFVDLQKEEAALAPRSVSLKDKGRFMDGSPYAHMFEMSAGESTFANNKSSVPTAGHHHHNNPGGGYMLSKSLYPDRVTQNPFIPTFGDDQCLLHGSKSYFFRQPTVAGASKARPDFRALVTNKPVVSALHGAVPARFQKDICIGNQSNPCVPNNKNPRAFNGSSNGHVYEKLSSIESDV

SMILES	IC50 [nM]
CNC(=O)[C@@H]1CN(Cc2cnc(Oc3ccccc3Cl)nc2)CCO1 [Example 26]	550
CNC(=O)[C@@H]1CN(Cc2cnc(Oc3ccc(F)cc3C)nc2)CCO1 [Example 21]	702
CNC(=O)[C@@H]1CN(Cc2cnc(Oc3ccc(F)cc3)nc2)CCO1 [Example 32]	547
CNC(=O)[C@@H]1CN(Cc2cnc(Oc3ccc(Cl)cc3F)nc2)CCO1 [Example 24]	98
CNC(=O)[C@@H]1CN(Cc2cnc(Oc3ccc(C)cc3F)nc2)CCO1 [Example 20]	133
CNC(=O)[C@@H]1CN(Cc2cnc(Oc3ccc(C)cc3C)nc2)CCO1 [Example 22]	1110
CNC(=O)[C@@H]1CN(Cc2cnc(Oc3ccc(F)cc3F)nc2)CCO1 [Example 23]	143
CNC(=O)[C@@H]1CN(Cc2cnc(Oc3ccc(Cl)cc3)nc2)CCO1 [Example 25]	216
CNC(=O)[C@@H]1CN(Cc2cnc(Oc3ccccc3F)nc2)CCO1 [Example 27]	350
CNC(=O)[C@@H]1CN(Cc2cnc(Oc3ccc(C)cc3)nc2)CCO1 [Example 28]	500
